Data taken from patent US11033539B2, “Compounds of formulas (VII), (VIII), (IX), (XI), (XII), (XIII), and (XIV) as muscarinic receptor 4(M4) antagonists for treating neurological diseases” (Neurocrine Biosciences, Inc., priority 2015, dated 2021).
pKi: −log10 of the molar value.

Target: human M4 receptor (Homo sapiens (Human), UniProt P08173)
Test: Radioligand (tritiated N-methylscopolamine) binding assay, M4
Details: Ki against the M4 receptor; membranes from CHO cells expressing human M4; tritiated N-methylscopolamine 1.5 nM; read-out: Ki
Summary of the method: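 Membranes from CHO cells expressing the receptor were incubated with 1.5 nM radioligand and twelve compound concentrations (10 μM to […]) for 90 min at 37 °C in 50 mM HEPES, 100 mM NaCl, 5 mM MgCl2, 1 mM EDTA, pH 7.4. Bound radioligand was collected by filtration and counted, and Ki was derived from inhibition.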

Sequence of human M4 receptor (P08173 whole entry): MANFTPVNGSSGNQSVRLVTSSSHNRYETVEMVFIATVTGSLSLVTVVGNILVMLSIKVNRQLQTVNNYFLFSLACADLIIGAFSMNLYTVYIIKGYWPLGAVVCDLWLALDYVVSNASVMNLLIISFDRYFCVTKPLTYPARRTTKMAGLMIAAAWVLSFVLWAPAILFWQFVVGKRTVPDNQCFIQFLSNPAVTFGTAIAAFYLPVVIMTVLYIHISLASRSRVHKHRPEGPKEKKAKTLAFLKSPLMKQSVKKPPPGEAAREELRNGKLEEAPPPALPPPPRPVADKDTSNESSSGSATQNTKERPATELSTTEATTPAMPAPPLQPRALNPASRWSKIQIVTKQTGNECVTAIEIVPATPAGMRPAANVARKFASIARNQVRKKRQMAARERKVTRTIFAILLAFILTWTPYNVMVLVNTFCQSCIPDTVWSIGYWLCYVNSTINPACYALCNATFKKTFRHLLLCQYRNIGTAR

| Compound | pKi |
| --- | --- |
| O=C(NCCC1CCN(CC2CCCCC2)CC1)C1CCN(c2ccc(OC(F)(F)F)cc2)CC1 [11-21, N-{2-[1-(cyclohexylmethyl)piperidin-4-yl]ethyl}-1-[4-(trifluoromethoxy)phenyl]piperidine-4-carboxamide] | 6.00 to 7.00 |
| O=C(NCCC1CCN(Cc2ccccc2)CC1)N1CCC(c2ccccc2)CC1 [8-38, N-[2-(1-benzylpiperidin-4-yl)ethyl]-4-phenylpiperidine-1-carboxamide] | 6.00 to 7.00 |
| C[C@@H]1CN(c2ncc(C#N)cn2)CCN1C(=O)NCCC1CCN(Cc2ccccc2)CC1 [5-13, (2R)-N-[2-(1-benzylpiperidin-4-yl)ethyl]-4-(5-cyanopyrimidin-2-yl)-2-methylpiperazine-1-carboxamide] | 7.00 to 8.00 |
| Cc1c(C(=O)NCCC2CCN(Cc3ccccc3)CC2)cnc2cc(-c3cccc(F)c3F)nn12 [18-7] | 7.00 to 8.00 |
| C[C@@H]1CN(c2ccc(F)cn2)CCN1C(=O)NCCC1CCN(Cc2ccccc2)CC1 [4-46, (2R)-N-[2-(1-benzylpiperidin-4-yl)ethyl]-4-(5-fluoropyridin-2-yl)-2-methylpiperazine-1-carboxamide] | 7.00 to 8.00 |
| C[C@@H]1CN(c2cc(F)ccc2F)CCN1C(=O)NCCC1CCN(Cc2ccccc2)CC1 [4-45, (2R)-N-[2-(1-benzylpiperidin-4-yl)ethyl]-4-(2,5-difluorophenyl)-2-methylpiperazine-1-carboxamide] | 7.00 to 8.00 |
| O=C(NCCC1CCN(Cc2ccccc2)CC1)N1CCN(c2ccc(F)cc2)CC1 [8-35, N-[2-(1-benzylpiperidin-4-yl)ethyl]-4-(4-fluorophenyl)piperazine-1-carboxamide] | 6.00 to 7.00 |
| O=C(OCCC1CCN(Cc2ccccc2)CC1)N1CCN(c2cc(F)c(F)c(F)c2)CC1 [12-12, 2-(1-benzylpiperidin-4-yl)ethyl 4-(3,4,5-trifluorophenyl)piperazine-1-carboxylate] | 7.00 to 8.00 |
| O=C(NCCC1CCN(Cc2ccccc2)CC1)c1ccc(-c2cccs2)cc1 [9-55, N-[2-(1-benzylpiperidin-4-yl)ethyl]-4-(thiophen-2-yl)benzamide] | 6.00 to 7.00 |
| CCNC(=O)c1cc(C)nc(N2CCN(C(=O)NCCC3CCN(Cc4ccccc4)CC3)[C@H](C)C2)n1 [27-19] | 6.00 to 7.00 |
| C=CCNC(=O)c1cnc(N2C[C@@H](C)N(C(=O)NCCC3CCN(Cc4ccccc4)CC3)[C@@H](C)C2)nc1 [27-4] | 6.00 to 7.00 |
| C[C@@H]1CN(c2ncc(C#N)cn2)C[C@H](C)N1C(=O)NCCC1CCN(CC2(C)COC2)CC1 [21-10] | 6.00 to 7.00 |
| COC1(C(=O)NCCC2CCN(Cc3ccccc3)CC2)CCN(c2cc(C(F)(F)F)ccn2)CC1 [10-47, N-[2-(1-benzylpiperidin-4-yl)ethyl]-4-methoxy-1-[4-(trifluoromethyl)pyridin-2-yl]piperidine-4-carboxamide] | 7.00 to 8.00 |
| O=C(NCCC1CCN(Cc2ccccc2)CC1)c1ccc(-c2ccc(C(F)(F)F)cc2)cc1 [9-16, N-[2-(1-benzylpiperidin-4-yl)ethyl]-4-[4-(trifluoromethyl)phenyl]benzamide] | 7.00 to 8.00 |
| C[C@@H]1CN(c2ccc(F)cc2)CCN1C(=O)NCCC1CCN(Cc2ccccc2)CC1 [4-30, (2R)-N-[2-(1-benzylpiperidin-4-yl)ethyl]-4-(4-fluorophenyl)-2-methylpiperazine-1-carboxamide] | 7.00 to 8.00 |
| Cc1cncc(N2CCN(C(=O)NCCC3CCN(Cc4ccccc4)CC3)[C@H](C)C2)c1 [4-63, (2R)-N-[2-(1-benzylpiperidin-4-yl)ethyl]-2-methyl-4-(5-methylpyridin-3-yl)piperazine-1-carboxamide] | 6.00 to 7.00 |
| O=C(NCCC1CCN(Cc2ccccc2)CC1)N1CCN(c2ccccc2F)CC1 [8-34, N-[2-(1-benzylpiperidin-4-yl)ethyl]-4-(2-fluorophenyl)piperazine-1-carboxamide] | 6.00 to 7.00 |
| O=C(NCCC1CCN(Cc2ccccc2)CC1)C1CCN(c2ccc(C(F)(F)F)nc2)CC1 [10-68, N-[2-(1-benzylpiperidin-4-yl)ethyl]-1-[6-(trifluoromethyl)pyridin-3-yl]piperidine-4-carboxamide] | 6.00 to 7.00 |
| C[C@@H]1CN(c2ncc(C(=O)NCCF)cn2)C[C@H](C)N1C(=O)NCCC1CCN(Cc2ccccc2)CC1 [27-7] | 6.00 to 7.00 |
| C[C@@H]1CN(c2cc(F)c(F)c(F)c2)CCN1C(=O)NCCC1CCN(Cc2ccc(C(N)=O)cc2)CC1 [6-16, (2R)-N-(2-{1-[(4-carbamoylphenyl)methyl]piperidin-4-yl}ethyl)-2-methyl-4-(3,4,5-trifluorophenyl)piperazine-1-carboxamide] | 7.00 to 8.00 |

| Compound | pKi |
| --- | --- |
| Cc1cc(Cl)c(-c2cc(C(=O)NCC[C@@H]3CCN(Cc4ccccc4)C3)ccc2Cl)cn1 [9-20, N-{2-[(3R)-1-benzylpyrrolidin-3-yl]ethyl}-4-chloro-3-(4-chloro-6-methylpyridin-3-yl)benzamide] | 6.00 to 7.00 |
| C[C@@H]1CN(c2cnc(C(F)(F)F)nc2)C[C@H](C)N1C(=O)NCCC1CCN(Cc2cccc(F)c2)CC1 [6-51, (2R,6S)-N-(2-{1-[(3-fluorophenyl)methyl]piperidin-4-yl}ethyl)-2,6-dimethyl-4-[2-(trifluoromethyl)pyrimidin-5-yl]piperazine-1-carboxamide] | 7.00 to 8.00 |
| Cc1[nH]c(-c2ccc(Cl)cc2Cl)nc1C(=O)NCCC1CCN(Cc2ccccc2)CC1 [9-61, N-[2-(1-benzylpiperidin-4-yl)ethyl]-2-(2,4-dichlorophenyl)-5-methyl-1H-imidazole-4-carboxamide] | 6.00 to 7.00 |
| CN(CCNC(=O)c1ccc(-c2ccccc2)cc1)[C@@H]1CCN(Cc2ccccc2)C1 [9-38, N-(2-{[(3R)-1-benzylpyrrolidin-3-yl](methyl)amino}ethyl)-4-phenylbenzamide] | 6.00 to 7.00 |
| O=C(NCCC1CCN(Cc2ccccc2)CC1)N1CCN(c2ncccc2Cl)CC1 [8-47, N-[2-(1-benzylpiperidin-4-yl)ethyl]-4-(3-chloropyridin-2-yl)piperazine-1-carboxamide] | 6.00 to 7.00 |
| O=C(NCCC1CCN(Cc2ccccc2)CC1)N1CCC(c2cccc(C(F)(F)F)c2)CC1 [8-3, N-[2-(1-benzylpiperidin-4-yl)ethyl]-4-[3-(trifluoromethyl)phenyl]piperidine-1-carboxamide] | 7.00 to 8.00 |
| Cc1nc(-c2ccc(C(F)(F)F)cc2)sc1C(=O)NCCC1CCN(Cc2ccccc2)CC1 [9-32, N-[2-(1-benzylpiperidin-4-yl)ethyl]-4-methyl-2-[4-(trifluoromethyl)phenyl]-1,3-thiazole-5-carboxamide] | 7.00 to 8.00 |
| C[C@@H]1CN(c2ncc(C(=O)NCC3CC3)cn2)C[C@H](C)N1C(=O)NCCC1CCN(Cc2ccccc2)CC1 [27-5] | 6.00 to 7.00 |
| CN(CCC1CCN(Cc2ccccc2)CC1)C(=O)C1CCN(c2ccc(OC(F)(F)F)cc2)CC1 [9-34, N-[2-(1-benzylpiperidin-4-yl)ethyl]-N-methyl-1-[4-(trifluoromethoxy)phenyl]piperidine-4-carboxamide] | 6.00 to 7.00 |
| N-{2-[1-(2,2-dimethylpropyl)piperidin-4-yl]ethyl}-1-[4-(trifluoromethoxy)phenyl]piperidine-4-carboxamide [11-27] | 6.00 to 7.00 |
| C[C@@H]1CN(c2ccc(F)cc2F)CCN1C(=O)NCCC1CCN(Cc2ccccc2)CC1 [4-33, (2R)-N-[2-(1-benzylpiperidin-4-yl)ethyl]-4-(2,4-difluorophenyl)-2-methylpiperazine-1-carboxamide] | 7.00 to 8.00 |
| C[C@@H]1CN(c2cc(F)c(F)c(F)c2)CCN1C(=O)NCCC1CCN(Cc2ccc(F)c(F)c2F)CC1 [6-22, (2R)-2-methyl-4-(3,4,5-trifluorophenyl)-N-(2-{1-[(2,3,4-trifluorophenyl)methyl]piperidin-4-yl}ethyl)piperazine-1-carboxamide] | 6.00 to 7.00 |
| C[C@@H]1CN(c2ccc(C#N)nn2)C[C@H](C)N1C(=O)NCCC1CCN(Cc2ccccc2)CC1 [23-3, (2R,6S)-N-[2-(1-benzylpiperidin-4-yl)ethyl]-4-(6-cyanopyridazin-3-yl)-2,6-dimethylpiperazine-1-carboxamide] | 7.00 to 8.00 |
| O=C(NCCC1CCN(Cc2ccccc2)CC1)C1CCN(c2ccc(F)cn2)CC1 [10-73, N-[2-(1-benzylpiperidin-4-yl)ethyl]-1-(5-fluoropyridin-2-yl)piperidine-4-carboxamide] | 6.00 to 7.00 |
| O=C(NCCC1CCN(Cc2ccccc2)CC1O)C1CCN(c2ccc(OC(F)(F)F)cc2)CC1 (stereo not shown) [9-27, N-[2-(1-benzyl-3-hydroxypiperidin-4-yl)ethyl]-1-[4-(trifluoromethoxy)phenyl]piperidine-4-carboxamide] | 7.00 to 8.00 |
| C[C@@H]1CN(c2cnc(C(F)(F)F)nc2)C[C@H](C)N1C(=O)NCCC1CCN(Cc2ccccc2F)CC1 [6-52, (2R,6S)-N-(2-{1-[(2-fluorophenyl)methyl]piperidin-4-yl}ethyl)-2,6-dimethyl-4-[2-(trifluoromethyl)pyrimidin-5-yl]piperazine-1-carboxamide] | 7.00 to 8.00 |
| N#Cc1ccc(N2CCN(C(=O)NCCC3CCN(Cc4ccccc4)CC3)CC2)nc1 [8-45, N-[2-(1-benzylpiperidin-4-yl)ethyl]-4-(5-cyanopyridin-2-yl)piperazine-1-carboxamide] | 6.00 to 7.00 |
| O=C(NCCC1CCN(Cc2ccccc2)CC1)N1CCC(c2nc3ccccc3s2)CC1 [8-14, 4-(1,3-benzothiazol-2-yl)-N-[2-(1-benzylpiperidin-4-yl)ethyl]piperidine-1-carboxamide] | 7.00 to 8.00 |
| O=C(OCCC1CCN(Cc2ccccc2)CC1)N1CCN(c2ccc(F)cc2)CC1 [12-3, 2-(1-benzylpiperidin-4-yl)ethyl 4-(4-fluorophenyl)piperazine-1-carboxylate] | 6.00 to 7.00 |
| COc1cccc(CN2CCC(CCNC(=O)C3CCN(c4ccc(OC(F)(F)F)cc4)CC3)CC2)n1 [11-30, N-(2-{l-[(6-methoxypyridin-2-yl)methyl]piperidin-4-yl}ethyl)-1-[4-(trifluoromethoxy)phenyl]piperidine-4-carboxamide] | 6.00 to 7.00 |
